Data on two molecules can be found in PMC12670405, “Second-Generation AURKA-Targeting PROTACs: Structural Optimization toward in Vivo Degradation in Neuroblastoma” (Journal of Medicinal Chemistry, 2025).

Molecules are shown by their SMILES.

One assay has as its system HEK293T. In words: IncuCyte live-cell imaging, antiproliferative effect. In kind it is cell-based. To be noted: Homo sapiens, HEK-293T, 72 h, read-out: Cell GI50 72h. The method, boiled down: (§1)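 Cells seeded in 384-well plates (neuroblastoma 1200–5000, HEK293T 600 cells/well), adhered overnight, then compound-treated in duplicate or triplicate; confluency tracked by IncuCyte live-cell imaging. Normalized confluence averaged from 3 experiments; absolute GI50 interpolated from four-parameter variable-slope curves.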

The next assay deals with IMR-32. Described as above. In kind it is cell-based. To be noted: Homo sapiens, IMR-32, 72 h, read-out: Cell GI50 72h, IMR-32. A digest of the protocol:
as §1

The next assay has as its system NGP. The assay is described as above. The assay is classed as cell-based. As to conditions: Homo sapiens, 72 h, read-out: Cell GI50 72h, NGP (Figure 4B). A digest of the protocol:
as §1

Another assay deals with RPE. Described as above. In kind it is cell-based. To be noted: 72 h, read-out: Cell GI50 72h.
Another assay concerns SJNB-8. The assay is described as above. In kind it is cell-based. To be noted: Homo sapiens, 72 h, read-out: Cell GI50 72h, SJNB-8. The method, boiled down: as §1
In another assay the test system is SK-N-AS. Described as above. The assay is classed as cell-based. As to conditions: Homo sapiens, 72 h, read-out: Cell GI50 72h. A digest of the protocol: as §1
The test system of the next assay is SK-N-SH. The description is as above. In kind it is cell-based. As to conditions: Homo sapiens, 72 h, read-out: Cell GI50 72h. A digest of the protocol: as §1
Another assay relates to SK-N-BE(2)-C. The description is as above. In kind it is cell-based, human. To be noted: Homo sapiens, SK-N-BE(2)-C, 72 h, read-out: Cell GI50 72h. The source says: Human neuroblastoma cell lines NGP, IMR-32, SJNB-8, SK-N-BE(2)-C, SJNB-1, SK-N-SH and SK-N-AS, as well as benign immortalized cell lines RPE and HEK293T were either bought commercially or obtained through research laboratories. […] Screening for mycoplasma contamination occurred routinely on the cells. Human neuroblastoma cell lines SH-SY5Y_shABCB1 & SH-SY5Y_shNTC were generated by transduction with pLKO.1-ABCB1_TRCN0000059683 shRNA (Sigma MISSION SHCLND) or pLKO.1-puro NT shRNA (Sigma MISSION SHC002) vectors respectively (Supplementary Table S6), packaged using Lenti-X293T (Clontech). Transduced cells were selected with 2 μg/mL puromycin. These cells were cultured in DMEM 4.5 g/L D-Glucose, L-Glutamine and 110 mg/L Sodium Pyruvate (Gibco, #11995065) supplemented with 10% fetal bovine serum, 1× Antibiotic-Antimycotic solution (Sigma-Aldrich, #A5955) and 1× MEM nonessential amino acids (Sigma-Aldrich, #M7145). Incubation of all cells occurred at 37 °C and 5% CO2.
Neuroblastoma cells were seeded in 384-well plates at different densities ranging from 1200 to 5000 cells/well and allowed to adhere overnight. RPE and HEK293T were seeded at 200 and 600 cells/well, respectively. Compound treatment was performed using the D300e Digital Dispenser (Tecan) in duplicate or triplicate and cell confluency was monitored over time using the IncuCyte Live-cell imaging system (Sartorius). […] Mean normalized confluences were calculated from 3 individual experiments.
(§2) All dose–response curves were computed on GraphPad Prism using the Variable Slope (four parameters) equation. Absolute half-maximal degradation (DC50), growth inhibitory (GI50) and enzymatic inhibitory (IC50) concentrations, as well as inhibition constants (Ki) were derived from dose–response curves via interpolation. Statistical tests were performed on GraphPad Prism and detailed in the figure legends. Unless otherwise stated, “n” in the figure legends indicates the number of independent experiments conducted at different times.

The target in assay [1] is T1, NanoLuc-AURKA (Homo sapiens, UniProt O14965).
T1 construct: Plasmids encoding full-length wild-type AURKA fused to Nano-Luc; host or cells: HEK293T
T1 sequence (O14965 1-403): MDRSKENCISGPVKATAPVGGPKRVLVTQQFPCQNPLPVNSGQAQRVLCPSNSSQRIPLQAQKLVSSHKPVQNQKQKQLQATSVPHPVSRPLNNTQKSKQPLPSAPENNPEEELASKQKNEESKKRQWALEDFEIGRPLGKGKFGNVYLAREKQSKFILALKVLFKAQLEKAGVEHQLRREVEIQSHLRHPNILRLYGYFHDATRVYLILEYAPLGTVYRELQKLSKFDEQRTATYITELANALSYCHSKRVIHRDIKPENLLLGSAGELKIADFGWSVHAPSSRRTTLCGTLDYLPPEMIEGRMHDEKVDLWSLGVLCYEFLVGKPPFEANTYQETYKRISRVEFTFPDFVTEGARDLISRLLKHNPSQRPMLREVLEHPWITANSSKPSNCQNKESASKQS
In words: NanoBRET target engagement, permeabilized mode. The assay is classed as binding. To be noted: permeabilized HEK293T. On the procedure:
(§3) The NanoBRET Target Engagement Assay (Promega) was performed according to the recommended instructions from the manufacturer. Plasmids encoding full-length wild-type AURKA fused to Nano-Luc via AURKA’s C-terminus (Promega, #NV1041) were transfected into HEK293T cells using FuGENE HD (Promega, #E2312). […] The plate was mixed at 900 rpm for 15 s, using an orbital shaker. For the permeabilized-mode, digitonin (Sigma-Aldrich, #D141) was additionally added at a final concentration of 50 μg/mL. Test compounds were subsequently administered in duplicate using the D300e digital dispenser (Tecan), followed by incubation for 2 h (37 °C, 5% CO2). To measure BRET, nanoglo substrate and extracellular nanoluc inhibitor (only in live-mode) (Promega #N2540) were added, and luminescence was measured using the GloMax Discover Microplate Reader (Promega) with a luminescence filter pair of 450 nm (BP filter, donor) and 600 nm (LP filter, acceptor). The NanoBRET ratio was calculated using the following formula: BRET ratio = 1000*[(acceptor signal/donor signal)with tracer – (acceptor signal/donor signal)no tracer]. Relative BRET ratios (%) were generated by normalizing to the negative DMSO control. The experiment was performed once with 2 replicate samples.
as §2

The target in assay [2] is T1, NanoLuc-AURKA. In words: NanoBRET target engagement, live (intact) cells. The assay is classed as cell-based. As to conditions: intact HEK293T. The protocol:
as §3, §2

As usually defined, the GI50 is the concentration giving 50% growth inhibition.

With `Cc1cc(Nc2nc(CC3(C(=O)O)CCN(C(=O)c4cccc(Cl)c4Cl)CC3)ccc2F)n[nH]1` [TAS-119, reference compound], the GI50 was found to be 184 nM in the assay on HEK293T; 11 nM with IMR-32; 20 nM in the assay with NGP; 250 nM in the assay on RPE; 44 nM in the assay on SJNB-8; 134 nM with SK-N-AS. The GI50 with SK-N-SH is 30 nM; in the assay on SK-N-BE(2)-C, 57 nM. Besides, on NanoLuc-AURKA [1], the “potency relative to SK4454 and SK5527 in NanoBRET” value was “at least 10 times”.

As to `O=C(O)[C@]1(Cc2cccc(Nc3nccs3)n2)CC[C@@H](Oc2cccc(Cl)c2F)CC1` [MK-5108, reference compound], the GI50 with HEK293T worked out at 1310 nM; with IMR-32, 119 nM; in the assay on NGP, 263 nM; in the assay with RPE, 953 nM; with SJNB-8, 348 nM; in the assay on SK-N-AS, 911 nM. The GI50 in the assay on SK-N-SH worked out at 249 nM; in the assay on SK-N-BE(2)-C it was 302 nM. The “potency relative to SK4454 and SK5527 in NanoBRET” value at NanoLuc-AURKA [1] is reported as “at least 10 times”. Further, the “NanoLuc-AURKA engagement in intact cells (in words)” value on NanoLuc-AURKA [2] is recorded as “stronger AURKA engagement than TAS-119”.
